The source of these data is PubChem BioAssay (NCI).

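Assay format: 96-well plates, 48-hour exposure. The concentration for full growth arrest is given as TGI.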

Common to all, as to experiment: NCI tumour cell line growth inhibition, 48 h
Experiment [1] concerns DLD-1 colon.
The subject of experiment [2] is KM20L2 colon.
Experiment [3] concerns LXFL 529 NSCLC.
In experiment [4] the test system is RXF-631 renal.
Experiment [5] deals with XF 498 CNS.
The test system of experiment [6] is DMS 114 small cell lung.
Experiment [7] has as its system DMS 273 small cell lung.
The subject of experiment [8] is P388 leukemia.
Experiment [9] has as its system P388/ADR leukemia.
The test system of experiment [10] is SN12K1 renal.

In the case of `C=CCOCCCC(=O)C(=[N+]=[N-])C(=O)OC`, the TGI in [1], in experiment [2], in [3], in experiment [4] and in experiment [5] was above 100 µM in each case.

For the compound `O=C1CCC(NC(=O)Cc2ccc(O)cc2)C(=O)N1` (stereo not drawn), the TGI in experiment [6], in [7], in [2], in [3], in [4] and in experiment [5] was above 2500 µM throughout.

In the case of `COC1CCC(OS(C)(=O)=O)CO1` (stereo not drawn), the TGI in experiment [6], in experiment [2] and in [3] was above 100 µM in each case.

With `S=C(NCCCCCCNC(=S)Nc1c2ccccc2nc2ccccc12)Nc1c2ccccc2nc2ccccc12`, the TGI was above 100 µM in experiment [1]; above 100 µM in experiment [7]; above 100 µM in [2]; above 100 µM in experiment [8]; above 100 µM in experiment [9]; above 25.1 µM in experiment [10]. This compound also showed a TGI in [5] above 100 µM.

In the case of `CN(C)CCNc1c([N+](=O)[O-])cc2c3c(cccc13)C(=O)N(CCN(C)C)C2=O`, the TGI came out at 6.02 µM in experiment [1]; 3.1 µM in [6]; 2.95 µM in experiment [7]; 5.87 µM in experiment [2]; 2.62 µM in experiment [8]; 4.9 µM in experiment [9]. In [5], this compound yielded a TGI of 3.92 µM.

Regarding `Cc1c2c(cc3c1[nH]c1ccccc13)C(c1ccc(F)cc1)=NCC2`, the TGI was determined as 6.45 µM in [1]; 2.41 µM in [6]; 2.29 µM in experiment [7]; 5.52 µM in experiment [2]; 1.97 µM in [8]; 5 µM in experiment [9]. The TGI in experiment [10] came out at 2.16 µM; in experiment [5], 5.67 µM.

Turning to `CC(=O)C1=C(O)C2(O)C(=O)c3c(c(C)c4ccc(C)c(O)c4c3O)CC2C(N)C1=O` (stereo not drawn), the TGI was found to be 11.7 µM in [1]; 7.17 µM in experiment [6]; 5.54 µM in experiment [7]; 14.7 µM in experiment [2]; 10.2 µM in [3]; 11.2 µM in experiment [4]. In [5], this compound displayed a TGI of 5.09 µM.
